Source: ChEMBL document CHEMBL5247655, “Simplified Derivatives of Tetrandrine as Potent and Specific P-gp Inhibitors to Reverse Multidrug Resistance in Cancer Chemotherapy” (J Med Chem, 2023)
In brackets after ≈: the same amount, converted by molar mass. Activity calls are given as the source filed them. No cut-off for these calls is given here.

Assays:
[1] = target: T1, ATP-dependent translocase ABCB1 (Homo sapiens, UniProt P08183); test: Inhibition of P-gp efflux in vincristine resistant human Eca-109 cells assessed as increase in intracellular accumulation of calcein-AM at 1 to 5 uM incubated for 1 hr by flow cytometry analysis; format: cell-based; conditions: eca-109, 1 h, dose 1-5 µM
T1 sequence (P08183 whole entry): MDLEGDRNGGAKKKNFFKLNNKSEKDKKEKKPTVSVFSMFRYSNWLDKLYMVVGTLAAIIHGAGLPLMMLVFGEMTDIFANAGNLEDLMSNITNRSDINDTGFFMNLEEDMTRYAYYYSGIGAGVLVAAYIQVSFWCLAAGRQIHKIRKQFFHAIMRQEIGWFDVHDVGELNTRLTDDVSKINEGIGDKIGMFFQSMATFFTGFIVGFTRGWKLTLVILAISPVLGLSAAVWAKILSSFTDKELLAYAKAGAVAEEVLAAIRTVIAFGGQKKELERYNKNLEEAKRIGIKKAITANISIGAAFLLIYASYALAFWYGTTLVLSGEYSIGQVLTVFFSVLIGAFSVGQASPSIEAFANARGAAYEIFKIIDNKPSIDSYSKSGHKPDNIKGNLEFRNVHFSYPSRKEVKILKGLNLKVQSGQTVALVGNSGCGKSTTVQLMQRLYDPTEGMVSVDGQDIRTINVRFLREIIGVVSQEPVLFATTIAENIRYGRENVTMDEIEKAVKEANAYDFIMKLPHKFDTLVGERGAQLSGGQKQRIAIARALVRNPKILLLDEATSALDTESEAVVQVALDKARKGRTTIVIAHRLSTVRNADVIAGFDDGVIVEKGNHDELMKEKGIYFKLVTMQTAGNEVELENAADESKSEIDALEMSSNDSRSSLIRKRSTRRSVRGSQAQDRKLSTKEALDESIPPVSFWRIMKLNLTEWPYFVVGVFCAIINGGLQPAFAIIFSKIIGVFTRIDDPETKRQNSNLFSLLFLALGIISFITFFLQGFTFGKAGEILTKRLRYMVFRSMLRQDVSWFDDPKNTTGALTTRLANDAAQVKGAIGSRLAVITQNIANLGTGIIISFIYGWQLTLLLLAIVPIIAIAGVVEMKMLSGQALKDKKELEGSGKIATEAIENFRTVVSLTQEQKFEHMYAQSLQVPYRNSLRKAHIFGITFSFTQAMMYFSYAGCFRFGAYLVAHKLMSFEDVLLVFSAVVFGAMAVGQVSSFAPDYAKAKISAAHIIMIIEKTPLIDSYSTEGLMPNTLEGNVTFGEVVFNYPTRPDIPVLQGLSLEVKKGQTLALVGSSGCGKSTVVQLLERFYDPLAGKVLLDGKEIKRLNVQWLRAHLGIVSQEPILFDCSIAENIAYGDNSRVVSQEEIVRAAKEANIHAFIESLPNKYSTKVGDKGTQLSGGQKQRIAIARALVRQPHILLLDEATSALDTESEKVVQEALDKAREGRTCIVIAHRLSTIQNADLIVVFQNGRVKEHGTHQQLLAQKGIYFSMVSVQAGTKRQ

ECa-109 cell line [2] = test: Reversal of vincristine-resistance in human Eca-109 cells assessed as fold reversal by measuring cell viability at 5 uM incubated for 48 hrs by CCK-8 method relative to vincristine alone; format: functional
[3] = Hepatotoxicity in nude mouse at 30 mg/kg, IG administered every two days for 21 days in presence of vincristine by H and E staining based analysis; format: toxicity, organism-based; conditions: in vivo, po, 504 h, time 21 day
[4] = Toxicity in nude mouse assessed as change in body weight at 30 mg/kg administered every 2 days for 21 days; format: organism-based; conditions: in vivo, 48 h, time 2 day
[5] = Cytotoxicity against HEK293T cells incubated for 48 hrs by CCK-8 method; format: toxicity, cell-based, HEK-293T; conditions: human
ECa-109 cell line [6] = test: Cytotoxicity against vincristine resistant human Eca-109 cells incubated for 48 hrs by CCK-8 method relative to control; format: functional; parameters: concentration or dose not given beside the values
ECa-109 cell line [7] = test: Induction of apoptosis in vincristine resistant human Eca-109 cells assessed as viable cells at 5 uM incubated for 24 hrs in presence of vincristine by AnnexinV-FITC/PI staining based flow cytometric analysis (reference value: 89.2%); format: functional; conditions: read-out: Activity
[8] = Apparent oral clearance in Sprague-Dawley rat at 3 mg/kg, iv measured upto 24 hrs by UPLC/MS/MS analysis; format: ADME, organism-based; conditions: in vivo
[9] = AUC (0 to infinity) in Sprague-Dawley rat at 30 mg/kg, po measured upto 24 hrs by UPLC/MS/MS analysis; format: ADME, organism-based; parameters: time < 24 hrs, dose 30 mg/kg, route po; conditions: in vivo
ECa-109 cell line [10] = test: Induction of apoptosis in vincristine resistant human Eca-109 cells assessed as necrotic cells at 1 uM incubated for 24 hrs by AnnexinV-FITC/PI staining based flow cytometric analysis (reference value: 0.25%); format: functional
[11] = Cmax in Sprague-Dawley rat at 30 mg/kg, po measured upto 24 hrs by UPLC/MS/MS analysis; format: ADME, organism-based; parameters: time < 24 hrs, dose 30 mg/kg, route po; conditions: in vivo
ECa-109 cell line [12] = test: Induction of apoptosis in vincristine resistant human Eca-109 cells assessed as early apoptotic cells at 5 uM incubated for 24 hrs in presence of vincristine by AnnexinV-FITC/PI staining based flow cytometric analysis (reference value: 4.43%); format: functional
ECa-109 cell line [13] = test: Induction of apoptosis in vincristine resistant human Eca-109 cells assessed as necrotic cells at 2.5 uM incubated for 24 hrs in presence of vincristine by AnnexinV-FITC/PI staining based flow cytometric analysis (reference value: 0.35%); format: functional
ECa-109 cell line [14] = test: Synergistic antitumor activity against in vincristine resistant p-gp overexpressing human Eca-109 cells xenografted in nude mouse assessed as increase in nuclear pyknosis at 30 mg/kg, IG administered every two days for 21 days in presence of vincristine by TUNEL analysis; format: functional, organism-based; conditions: time 21.0 day
[15] = AUMC (0 to infinity) in Sprague-Dawley rat at 3 mg/kg, iv measured upto 24 hrs by UPLC/MS/MS analysis; format: ADME, organism-based; conditions: in vivo
[16] = Terminal elimination half life in Sprague-Dawley rat at 3 mg/kg, iv measured upto 24 hrs by UPLC/MS/MS analysis; format: ADME, organism-based; conditions: in vivo, read-out: LambdaZ (converted)
[17] = Cytotoxicity against human HK-2 cells incubated for 48 hrs by CCK-8 method; format: toxicity, cell-based
ECa-109 cell line [18] = test: Induction of apoptosis in vincristine resistant human Eca-109 cells assessed as necrotic cells at 1 uM incubated for 24 hrs in presence of vincristine by AnnexinV-FITC/PI staining based flow cytometric analysis (reference value: 0.35%); format: functional
ECa-109 cell line [19] = test: Induction of apoptosis in vincristine resistant human Eca-109 cells assessed as late apoptotic cells at 1 uM incubated for 24 hrs in presence of vincristine by AnnexinV-FITC/PI staining based flow cytometric analysis (reference value: 6.01%); format: functional
ECa-109 cell line [20] = test: Induction of apoptosis in vincristine resistant human Eca-109 cells assessed as necrotic cells at 5 uM incubated for 24 hrs in presence of vincristine by AnnexinV-FITC/PI staining based flow cytometric analysis (reference value: 0.35%); format: functional
ECa-109 cell line [21] = test: Induction of apoptosis in vincristine resistant human Eca-109 cells assessed as viable cells at 1 uM incubated for 24 hrs in presence of vincristine by AnnexinV-FITC/PI staining based flow cytometric analysis (reference value: 89.2%); format: functional; conditions: read-out: Activity
[22] = AUMC (0 to infinity) in Sprague-Dawley rat at 30 mg/kg, po measured upto 24 hrs by UPLC/MS/MS analysis; format: ADME, organism-based; conditions: in vivo
ECa-109 cell line [23] = test: Induction of apoptosis in vincristine resistant human Eca-109 cells assessed as late apoptotic cells at 1 uM incubated for 24 hrs by AnnexinV-FITC/PI staining based flow cytometric analysis (reference value: 7.19%); format: functional
ECa-109 cell line [24] = test: Induction of apoptosis in vincristine resistant human Eca-109 cells assessed as early apoptotic cells at 1 uM incubated for 24 hrs in presence of vincristine by AnnexinV-FITC/PI staining based flow cytometric analysis (reference value: 4.43%); format: functional
ECa-109 cell line [25] = test: Induction of apoptosis in vincristine resistant human Eca-109 cells assessed as necrotic cells at 5 uM incubated for 24 hrs by AnnexinV-FITC/PI staining based flow cytometric analysis (reference value: 0.25%); format: functional
[26] = target: T1, ATP-dependent translocase ABCB1; test: Inhibition of P-gp efflux in vincristine resistant human Eca-109 cells assessed as effect on accumulation of doxorubicin; format: cell-based
ECa-109 cell line [27] = test: Reversal of VCR -resistance in human Eca-109 cells assessed as cell viability at 2.5 uM incubated for 48 hrs by CCK-8 method (reference value: 6830.0+/-537.0 nM); format: functional, cell-based; conditions: ECa-109, 48 h
[28] = Solubility of the compound in water at 25 degree C by shake flask method based UV-spectrophotometric method; format: physicochemical
ECa-109 cell line [29] = test: Synergistic antitumor activity against in vincristine resistant p-gp overexpressing human Eca-109 cells xenografted in nude mouse assessed as increase in vacuoles at 30 mg/kg, IG administered every two days for 21 days in presence of vincristine by TUNEL analysis; format: functional, organism-based; conditions: time 21.0 day
ECa-109 cell line [30] = test: Induction of apoptosis in vincristine resistant human Eca-109 cells assessed as early apoptotic cells at 5 uM incubated for 24 hrs by AnnexinV-FITC/PI staining based flow cytometric analysis (reference value: 2.30%); format: functional
ECa-109 cell line [31] = test: Synergistic antitumor activity against in vincristine resistant p-gp overexpressing human Eca-109 cells xenografted in nude mouse assessed as inhibition of tumor growth rate at 30 mg/kg, IG administered every two days for 21 days in presence of vincristine relative to control; format: functional; parameters: scale not given: the % may be the effect or the level left; conditions: time 21 day
ECa-109 cell line [32] = test: Synergistic antitumor activity against in vincristine resistant p-gp overexpressing human Eca-109 cells xenografted in nude mouse assessed as reduction in tumor weight at 30 mg/kg, IG administered every two days for 21 days in presence of vincristine by caliper method; format: functional, organism-based; conditions: time 21.0 day
[33] = MRT (0 to infinity) in Sprague-Dawley rat at 30 mg/kg, po measured upto 24 hrs by UPLC/MS/MS analysis; format: ADME, organism-based; conditions: in vivo

inhibition (INH) [1]: Active | CL/F [8]: 18.3 mL/min/kg | AUC(0-inf) [9]: 2740 ng·h/mL | Cmax [11]: 637 ng/mL | AUMC [15]: 7391.35 ng/mL.hr^2 | k el at 24 h [16]: 4.17e-05 s⁻¹ | AUMC [22]: 131110.55 ng/mL.hr^2 | inhibition (INH) [26]: Active | solubility thermodynamic [28]: 68 µg/mL (≈ 157 µM) | MRT inf [33]: 4.89 h
Structure (SMILES): COc1cc2c(cc1OC)C(Cc1ccc(OC)c(OCc3ccccc3)c1)N(C)CC2 (stereo not drawn)
fold change (FC) (ECa-109 cell line [2]): 690.6 | Activity [3]: Non-Toxic | Activity [4]: Non-Toxic | IC50 at 48 h [5]: > 50 µM | Activity (ECa-109 cell line [6]): 95.3% | viability at 5 µM (ECa-109 cell line [7]): 64.5% | Activity (ECa-109 cell line [10]): 0.15% | Activity (ECa-109 cell line [12]): 24.9% | Activity (ECa-109 cell line [13]): 0.42% | Activity (ECa-109 cell line [14]): Active | IC50 at 48 h [17]: > 50 µM | Activity (ECa-109 cell line [18]): 0.37% | Activity (ECa-109 cell line [19]): 8.64% | Activity (ECa-109 cell line [20]): 0.62% | viability at 1 µM (ECa-109 cell line [21]): 76.1% | Activity (ECa-109 cell line [23]): 6.12% | Activity (ECa-109 cell line [24]): 14.9% | Activity (ECa-109 cell line [25]): 0.14% | IC50 (ECa-109 cell line [27]): 0.0661 µM | Activity (ECa-109 cell line [29]): Active | Activity (ECa-109 cell line [30]): 2.51% | Activity (ECa-109 cell line [31]): 79.13% | Activity (ECa-109 cell line [32]): Active
